Among the data in a melting point compilation (Tetko et al.; mined from patent text by program, amines drawn as free bases though some values may be those of a salt) are melting point values, retold here.

For the molecule `C#CC[C@H](c1nc2cccnc2c(=O)n1Nc1ccccc1)N(CCCN)C(=O)c1cc(F)c(F)c(F)c1F`, the melting point (commonly the temperature of the solid-liquid transition) lay in the range of 180 to 182 °C.
As for `CC(C)Oc1ccc(CCCOc2cc(CCC(=O)O)n(C)n2)c(Oc2ncc(Cl)cc2Cl)c1`, the melting point was 77 to 78 °C.
The molecule `CCOC1CN2CCC1CC2` (centres undefined) had a melting point of 96 to 98 °C.
With `Cc1cc([N+](=O)[O-])c(O)c2c1CCC2=O` the figure was 154 to 157 °C; with `COc1cc(OCn2nnc3ccccc32)c(C=O)cc1-c1cccs1`, 137 to 138 °C.
With `CS(=O)(=O)Cc1cccc(-c2nc(=O)c3ccccc3s2)n1` the figure was 230 to 232 °C; with `CCOC(=O)c1cnn(-c2ccccc2)c1Br`, 86 to 89 °C; with `O=c1cc(NCCN2CCN(c3cc(Cl)cc4c3OCCO4)CC2)cn[nH]1`, 115 to 117 °C.
In turn, `CCCCCC(COc1ccc(C(=O)O)cc1)c1ccc2c(c1)C(C)(C)CC(C)(C)O2` (racemic) gave a melting point of 94 to 96 °C.
Take `Cn1c(=O)n(Cc2ccccc2)c(=O)c2cc(C(=O)CCc3ccccc3)ccc21`: the melting point was 155 °C.
As to `COc1cc(C(C)C)c2c(c1)S(=O)(=O)N(COC(=O)c1c(C)noc1C)C2=O`, the melting point was 137 to 139 °C.
The molecule `Cc1nnc(-n2cc(C(=O)N3CCCC3)c3c4cc(F)ccc4n(C)c3c2=O)s1` registered a melting point of 299 to 301 °C.
Regarding `CC(=O)OCc1c(Br)cccc1Br`, the melting point was 62 to 65 °C.
Regarding `O=C(O)Cc1cccc(F)c1OCCCc1cn(-c2ccc(C(F)(F)F)cn2)nc1C1CCCCC1`, the melting point was in the range of 149 to 150 °C.
As for `CONC(=O)Cc1ccccc1Nc1c(Cl)cccc1Cl`, the melting point was in the range of 177 to 178 °C.
With `COCCn1c(=O)[nH]c2ncc(-c3ccc(O)cc3)nc21` the figure was 236 to 237 °C.
With `N#CC(Sc1ccc(Cl)cc1)=C1SCCN1c1ccccc1` the figure was 144 to 146 °C.
Turning to `Fc1cccc2c(CCCc3ccc(Cl)cc3)ccnc12`, the melting point was 97 °C.
With `CN[C@@H](C)[C@@H]1CCN(c2c(F)cc3c(=O)[nH]c(=O)n(C4CC4)c3c2C)C1` the figure was > 250 °C; with `O=C1SC(Cc2ccc(OCCc3c[nH]c4ccccc34)cc2)C(=O)N1C(c1ccccc1)(c1ccccc1)c1ccccc1` (centres undefined), 81 to 82.5 °C; with `C(=C1CC(c2ccccc2)Cc2ccccc21)c1cncn1Cc1ccccc1` (centres undefined), 198 °C.
Regarding `CCOC(=O)c1nccn1Cc1ccc(Cl)cc1[N+](=O)[O-]`, the melting point was 105 to 107 °C.
`CC(C)N1CCN(c2ccc(-c3[nH]nc4c3C(=O)c3c(NC(=O)NN5CCN(C)CC5)cccc3-4)cc2)CC1` gave a melting point of 272 °C.
`c1ccc(C2CCNC3=NCCCN32)cc1` (centres undefined) came in with a melting point of 177 to 179 °C.
As for `CS(=O)(=O)c1ccc(-c2cnn(-c3ccc(F)cc3)c(=O)c2Cc2ccc(F)cc2)cc1`, the melting point lay in the range of 175 to 177 °C.
Turning to `COC(=O)C(=O)C(CCCc1ccccc1)CS(=O)(=O)c1ccc(OC)cc1` (centres undefined), the melting point was 95 °C.
With `O=[N+]([O-])c1ccc(C2OCc3cc(Br)ccc3O2)cc1` (centres undefined) the figure was 163 to 164 °C; with `CC(=O)OC1CSC(Oc2ccc(-c3ccc(F)nc3)nc2Cl)C(OC(C)=O)C1OC(C)=O` (centres undefined), 226 °C.
`N#CC1(N)CCC2Cc3ccccc3CC2C1` (centres undefined) came in with a melting point of 128 °C.
Molecule `N#Cc1ccc(-c2cc3ccc(C#N)cc3[nH]2)cc1` came in with a melting point of 270 to 275 °C.
`OCCCc1cc2c(cc1O)CCO2` showed a melting point of 103 to 104 °C.
The molecule `Cc1nnc2ccc(-c3ccc(Cl)cc3)cn12` came in with a melting point of 192 to 194 °C.
With `COc1ccc(C2=NN(c3ccccn3)C(=O)CC2)cc1` the figure was > 300 °C; with `O=C(Cc1cc(F)cc(F)c1)NCC(=O)N[C@@H]1C(=O)Nc2ccccc2S[C@@H]1c1ccccc1`, 125 to 130 °C; with `COc1ccc(C2=CCN(c3ccc(Cl)c(Cl)c3)C2=O)cc1OCCN1CCCCC1`, 98 to 99 °C.
Consider `Cc1ccc(C2CC3C=CC2C3)n1CCC1CC(O)CC(=O)O1` (centres undefined), for which the melting point was in the range of 125 to 126 °C.
Molecule `CCCc1cc(N2CCN(c3ccncc3)CC2)ccc1OCCCC(=O)OCC` yielded a melting point of 65 to 67 °C.
`O=C(O)COc1ccc(-c2c(Cl)c(CN3C(=O)CCC3=O)nc3sc4c(c23)CCS(=O)(=O)C4)cc1` yielded a melting point of 260 to 261 °C.
`O=[N+]([O-])c1cc(Cl)c(OCCCO)c([N+](=O)[O-])c1OCCCO` came in with a melting point of 90 °C.
With `Nc1cc(Cl)c(Cl)c(Br)c1N` the figure was 128 to 129 °C; with `Cc1nc2c3c(c(CCl)cn2c1C)CCC(c1ccccc1)C3` (centres undefined), 155 to 157 °C.
Regarding `Nc1cccc(C(=O)Nc2ccc(-c3ccc(C(=O)N4CCN5CCC4CC5)o3)cc2)c1`, the melting point was 249 to 252 °C.
Take `N#Cc1cc(CO)nc(C(=O)Nc2ccc(F)cn2)c1`: the melting point came out at 232 °C.
With `CC(C)(N)COC(=O)CCc1cc(C(C)(C)C)c(O)c(C(C)(C)C)c1` the figure was 97 to 99 °C; with `CC1(C)NC(=O)c2ccccc2N1CCCN1CCC(C(=O)c2ccc(F)cc2)CC1`, 186 °C; with `COc1cc(OC)c2c(=O)c(OCCOc3ccc(C(C)=O)cc3)c(-c3ccc(OC)c(OC)c3)oc2c1`, 143 to 144 °C.
In turn, `COc1ccnc(NC(=O)NS(=O)(=O)c2ccccc2-c2nn(C)c(=O)o2)n1` registered a melting point of 223 to 224 °C.
With `O=C(N[C@H]1CCCNC1=O)c1ccccc1F` the figure was 166 to 168 °C; with `CC(CO)(CO)NCc1c2ccc3ccccc3c2cc2ccsc12`, 212 to 215 °C.
The molecule `COC(=O)c1ccc2ccc(NC(=O)OC(C)(C)C)c(Br)c2c1` yielded a melting point of 137 to 140 °C.
With `O=c1[nH]c2cccnc2n1CCCN1CCC(C(O)(c2ccc(F)cc2)c2ccccn2)CC1` (centres undefined) the figure was 140 to 144 °C.
In turn, `O=C(O)CCC(=O)N1CCc2cc(S(=O)(=O)N3CCN(c4cccc(C(F)(F)F)c4)CC3)ccc21` returned a melting point of 274 to 276 °C.
With `Cc1cc(C)c2nccn2n1` the figure was 70 to 74 °C; with `COC(=O)c1ccc(-c2nc(-c3cc(Cl)sc3Cl)cs2)cc1`, 149 to 150 °C.
With `CCCNc1nc(C)c(CCO)c(=O)n1C` the figure was 240 °C.
In turn, `CCCCP(CCCC)(CCCC)=C1CC(=O)OC1=O` returned a melting point of 70 °C.
In turn, `O=C1Nc2ccccc2SC1CCCCBr` (centres undefined) registered a melting point of 100 °C.
As for `COc1ccccc1N1CCN(C2(C(=O)c3ccc(Cl)cc3)CC2)CC1`, the melting point was in the range of 103 to 104 °C.
In turn, `CCc1cc(-c2[nH]c3ccccc3c2C)cc(CC)c1O` showed a melting point of 112 °C.
Molecule `COc1ccc(S(=O)(=O)C[N+](=O)[O-])s1` gave a melting point of 70 to 71 °C.
On to `CC1(C)CC(=O)c2c(N3CCC3)sc(-c3cc[nH]n3)c2C1`, for which the melting point is 263 to 265 °C.
Turning to `COc1ccc(S(=O)(=O)Nc2cccnc2Nc2ccccc2)c(OC)c1`, the melting point is 176 to 178 °C.
In the case of `O=C(c1ccc(-n2ccnc2)cc1)N1CCN(S(=O)(=O)c2cc3cc(Cl)ccc3[nH]2)CC1`, the melting point lay in the range of 155 to 165 °C.
`O=C1C(=O)c2ccc(-c3cccc(C(F)(F)F)c3)cc2C2=C1SCC1(CCNCC1)O2`: the melting point was in the range of 199 to 203 °C.
Consider `COC(=O)C(CCSC)N(C(=O)OC(C)(C)C)C(=O)c1ccc(N)c(OC)c1` (centres undefined), for which the melting point was 163 to 165 °C.
`CCC(C)CNC(=O)c1ccc2cccc(Cc3ccc(C(=O)O)cc3OC)c2c1` (centres undefined) gave a melting point of 220 to 221 °C.
With `CCC1(CC)C(=O)N(C(C)C)CC(C)(C)N1OC(C)(C)C#N` the figure was 84 to 89 °C; with `Cc1ccc2c(C(=O)O)csc2c1`, 205 to 209 °C; with `CCCCc1cccc(-c2cn(C)cc(-c3ccccc3)c2=O)c1`, 87 to 89 °C.
As to `CC(C(=O)O)c1ccc2c(c1)C(=O)Cc1ccc(F)cc1S2` (centres undefined), the melting point is 148 °C.
`NS(=O)(=O)c1ccc(-n2nc(CCl)cc2-c2ccc(Cl)cc2)cc1`: the melting point is 198 to 201 °C.
With `COc1cc(N2CCN(c3c(C)c(C)c4c(c3C)CC(C)(C)O4)CC2)ccc1F` the figure was 152 to 155 °C.
On to `CCOc1ccc(C2=NN(C3CCN(C(=O)Nc4ccccc4)CC3)C(=O)[C@@H]3CC=CC[C@H]23)cc1OCC`, for which the melting point is 109 to 112 °C.
`COc1c(O)cc(O)c2c(=O)cc(-c3ccccc3)oc12` showed a melting point of 202 to 203 °C.
`CN1CCN(c2ccc([N+](=O)[O-])cc2C(F)(F)F)C1=O`: the melting point was in the range of 119 to 120 °C.
Turning to `CS(=O)(=O)c1nc2ncc(Cl)cc2s1`, the melting point lay within 201 to 202 °C.
For `CCOCc1nc2c(N)nc3cc(-c4cncc(CO)c4)ccc3c2n1CC(C)(C)O`, the melting point was 188 to 190 °C.
`O=C(O)CCC12CC(c3ccccc31)c1ccccc12` showed a melting point of 185 to 189 °C.
As to `CN1C(=O)CN=C(c2cccc(Cl)c2)c2cc(C(O)(c3ccc(Cl)cc3)c3cncn3C)ccc21` (centres undefined), the melting point is 226 °C.
With `CC(=CC(=O)NCc1cccc(CNC(=O)C=C(C)C(=O)O)c1)C(=O)O` the figure was 148 to 150 °C.
Consider `C=CCC1(C(O)C(c2cccc(Cl)c2)n2ccnc2)CC2C=CC1C2` (centres undefined), for which the melting point lay in the range of 134 to 135 °C.
`COC(=O)Cc1sc(=O)[nH]c1/C=C/c1ccccc1` returned a melting point of 164 °C.
`CN1Cc2c(C#N)ncn2-c2cccc(Cl)c2C1=O` had a melting point of 238 to 240 °C.
With `Cc1cc(NC2=NCCN2C(=O)c2ccccc2)n(C)n1` the figure was 147 to 149 °C; with `CN(Cc1sc2c(=O)c(C(=O)NCc3ccc(Cl)cc3)cn(C)c2c1CNS(C)(=O)=O)C[C@@H](O)c1ccccn1`, 171 to 177 °C.
In the case of `CCCCCCCCCCCCS(=O)(=O)Nc1cc(NC(=O)c2ccc(F)c(F)c2)ccc1OC`, the melting point worked out at 132 °C.
Molecule `O=C(OCc1ccc([N+](=O)[O-])cc1)OCc1ccc([N+](=O)[O-])cc1` came in with a melting point of 156 to 158 °C.
`O=C1NC(=O)c2c1c(-c1ccccc1)cc1c2c2cc(O)ccc2n1CCn1ccnc1`: the melting point is > 345 °C.
`CC(C(=O)O)c1ccc(-n2cccn2)c(Cl)c1` (centres undefined) came in with a melting point of 83 to 85 °C.
